Drawing on ChEMBL document CHEMBL1275605, “Rapid assessment of antibacterial activity against Mycobacterium ulcerans by using recombinant luminescent strains” (2010), this text covers MIC and Activity for ten compounds.

For experiment [1], the system named is Mycobacterium ulcerans. Put plainly: Antimicrobial activity against Mycobacterium ulcerans 1059 agar dilution method. It counts as functional.
Experiment [2] concerns Mycobacterium ulcerans. Put plainly: Antimicrobial activity against Mycobacterium ulcerans 1059 harboring pTY60K carrying the luxAB gene under the hsp60 promoter agar dilution method. In kind it is functional. (In agar dilution the substance is mixed into plates at graded concentrations.)
Experiment [3] deals with Mycobacterium ulcerans. Put plainly: Antimicrobial activity against Mycobacterium ulcerans 1059 harboring pTY60K containing pMH94 carrying the luxAB gene under the hsp60 promoter after 14 days determined according to RLU count by real-time luminescence method. It counts as functional. The settings on record: Mycobacterium ulcerans, 1059, 336 h.
Experiment [4] has as its system Mycobacterium ulcerans. Put plainly: Antimicrobial activity against Mycobacterium ulcerans ATCC 19423 harboring pTY60K containing pMH94 carrying the luxAB gene under the hsp60 promoter after 7 days determined according to CFU count by bioluminescence method. It counts as functional. As to conditions: ATCC 19423, 168 h.
Experiment [5] deals with Mycobacterium ulcerans. Put plainly: Antimicrobial activity against Mycobacterium ulcerans 1059 harboring pTY60K containing pMH94 carrying the luxAB gene under the hsp60 promoter after 14 days determined according to CFU count by bioluminescence method. It counts as functional. As to conditions: Mycobacterium ulcerans, 1059, 336 h.
Experiment [6] deals with Mycobacterium ulcerans. Put plainly: Antimicrobial activity against Mycobacterium ulcerans ATCC 19423 harboring pTY60K containing pMH94 carrying the luxAB gene under the hsp60 promoter after 7 days determined according to RLU count by real-time luminescence method. In kind it is functional. The settings on record: ATCC 19423, 168 h.
Experiment [7] relates to Mycobacterium ulcerans. Put plainly: Antimicrobial activity against Mycobacterium ulcerans ATCC 19423 harboring pTY60H containing pCK0601 carrying the luxAB gene under the hsp60 promoter after 14 days determined according to RLU count by real-time luminescence method. In kind it is functional. The settings on record: ATCC 19423, 336 h.
In experiment [8] the test system is Mycobacterium ulcerans. Put plainly: Antimicrobial activity against Mycobacterium ulcerans ATCC 19423 harboring pTY60H carrying the luxAB gene under the hsp60 promoter agar dilution method. In kind it is functional.
For experiment [9], the system named is Mycobacterium ulcerans. Put plainly: Antimicrobial activity against Mycobacterium ulcerans ATCC 19423 agar dilution method. In kind it is functional.
In experiment [10] the test system is Mycobacterium ulcerans. Put plainly: Antimicrobial activity against Mycobacterium ulcerans ATCC 19423 harboring pTY60H containing pCK0601 carrying the luxAB gene under the hsp60 promoter after 14 days determined according to CFU counts by bioluminescence method. The settings on record: ATCC 19423, 336 h. In kind it is functional.
The subject of experiment [11] is Mycobacterium ulcerans. Put plainly: Antimicrobial activity against Mycobacterium ulcerans ATCC 19423 harboring pTY60H assessed as 4-fold increase in reserpine-mediated inhibition of bacterial growth after 14 days. In kind it is functional, organism-based.
Experiment [12] relates to Mycobacterium ulcerans. Put plainly: Antimicrobial activity against Mycobacterium ulcerans ATCC 19423 harboring pTY60H carrying the luxAB gene under the hsp60 promoter determined after 14 days in presence of 2.5 ug/ml ATP-cassette transporter inhibitor reserpine. It counts as functional, organism-based.
Experiment [13] relates to Mycobacterium ulcerans. Put plainly: Antimicrobial activity against Mycobacterium ulcerans ATCC 19423 harboring pTY60H assessed as 2-fold increase in reserpine-mediated inhibition of bacterial growth after 14 days. It counts as functional, organism-based.
The test system of experiment [14] is Mycobacterium ulcerans. Put plainly: Antimicrobial activity against Mycobacterium ulcerans Cu001 agar dilution method. In kind it is functional.

A word on the MIC: it is the lowest concentration found to suppress growth. Lower therefore signals greater potency.

In brackets after ≈: the same amount, converted by molar mass. Activity calls are given as the source filed them. The rule behind the calls is not given here.

As to `CC[C@H]1OC(=O)[C@H](C)[C@@H](O[C@H]2C[C@@](C)(OC)[C@@H](O)[C@H](C)O2)[C@H](C)[C@@H](O[C@@H]2O[C@H](C)C[C@H](N(C)C)[C@H]2O)[C@](C)(OC)C[C@@H](C)C(=O)[C@H](C)[C@@H](O)[C@]1(C)O` [CLARITHROMYCIN], the MIC in experiment [1] turned out to be 0.25 mg/L (≈ 0.334 µM); in experiment [2] it was 0.25 mg/L (≈ 0.334 µM); in experiment [3], 0.13 mg/L (≈ 0.174 µM); in [4] it was 0.03 mg/L (≈ 0.0401 µM); in [5] it was 0.25 mg/L (≈ 0.334 µM); in experiment [6], 0.13 mg/L (≈ 0.174 µM).
For the compound `CO[C@H]1/C=C/O[C@@]2(C)Oc3c(C)c(O)c4c(O)c(c(/C=N/N5CCN(C)CC5)c(O)c4c3C2=O)NC(=O)/C(C)=C\C=C\[C@H](C)[C@H](O)[C@@H](C)[C@@H](O)[C@@H](C)[C@H](OC(C)=O)[C@@H]1C` [RIFAMPIN], the MIC in [7] was no more than 0.03 mg/L; in experiment [1] it was 0.13 mg/L (≈ 0.158 µM); in [2], 0.5 mg/L (≈ 0.608 µM); in experiment [8], 0.5 mg/L (≈ 0.608 µM); in experiment [3] it was 0.06 mg/L (≈ 0.0729 µM); in experiment [9] it was 0.5 mg/L (≈ 0.608 µM). The MIC is no more than 0.016 mg/L in [4], no more than 0.03 mg/L in experiment [10], 0.03 mg/L (≈ 0.0365 µM) in experiment [5] and 0.03 mg/L (≈ 0.0365 µM) in experiment [6].
On to `CC[C@H]1OC(=O)[C@H](C)[C@@H](O[C@H]2C[C@@](C)(OC)[C@@H](O)[C@H](C)O2)[C@H](C)[C@@H](O[C@@H]2O[C@H](C)C[C@H](N(C)C)[C@H]2O)[C@](C)(O)C[C@@H](C)C(=O)[C@H](C)[C@@H](O)[C@]1(C)O` [ERYTHROMYCIN], for which the results for the MIC in experiment [7], in experiment [9] and in experiment [10] were 0.5 mg/L (≈ 0.681 µM), greater than 16 mg/L and 1 mg/L (≈ 1.36 µM), respectively. Besides, the result in experiment [11] and in experiment [12] was Active.
Turning to `CN[C@@H]1[C@H](O[C@H]2[C@H](O[C@H]3[C@H](O)[C@@H](O)[C@H](N=C(N)N)[C@@H](O)[C@@H]3N=C(N)N)O[C@@H](C)[C@]2(O)C=O)O[C@@H](CO)[C@H](O)[C@H]1O` [STREPTOMYCIN], the MIC in experiment [7] was 1 mg/L (≈ 1.72 µM); in experiment [1] it was 0.25 mg/L (≈ 0.43 µM); in experiment [2], 0.25 mg/L (≈ 0.43 µM); in [8] it was 0.25 mg/L (≈ 0.43 µM); in experiment [3], 0.13 mg/L (≈ 0.224 µM); in experiment [9] it was 0.25 mg/L (≈ 0.43 µM). The MIC in [4] was 0.25 mg/L (≈ 0.43 µM); in experiment [10] it was 1 mg/L (≈ 1.72 µM); in experiment [5], 0.13 mg/L (≈ 0.224 µM); in [6], 0.5 mg/L (≈ 0.86 µM).
With `CN(C)[C@@H]1C(O)=C(C(N)=O)C(=O)[C@@]2(O)C(O)=C3C(=O)c4c(O)cccc4[C@@](C)(O)[C@H]3C[C@@H]12` [TETRACYCLINE], the MIC is 2.5 mg/L (≈ 5.63 µM) in experiment [7], 5 mg/L (≈ 11.3 µM) in experiment [8], 10 mg/L (≈ 22.5 µM) in [9] and 2.5 mg/L (≈ 5.63 µM) in experiment [10]. The outcome in [13] and in [12] was Active.
As to `COc1c(N2C[C@@H]3CCCN[C@@H]3C2)c(F)cc2c(=O)c(C(=O)O)cn(C3CC3)c12` [MOXIFLOXACIN], the MIC in experiment [7] was no more than 0.03 mg/L; in experiment [1], greater than 0.5 mg/L; in experiment [8] it was 0.03 mg/L (≈ 0.0747 µM); in experiment [3] it was greater than 0.25 mg/L; in experiment [9], no more than 0.016 mg/L; in [4] it was 0.03 mg/L (≈ 0.0747 µM). Further, the values for the MIC in experiment [10], in [5] and in experiment [6] were no more than 0.03 mg/L, greater than 0.25 mg/L and 0.03 mg/L (≈ 0.0747 µM), respectively.
`CN[C@@H]1C[C@H](N)[C@@H](O)[C@H](O[C@H]2O[C@H](CO)[C@H](O)[C@@H]3O[C@@]4(O[C@@H]23)O[C@H]([C@H](N)CO)[C@H](O)[C@H](O)[C@H]4O)[C@H]1O` [HYGROMYCIN]: the minimal inhibitory concentration (MIC) in experiment [9] and in experiment [14] was no more than 12.5 mg/L in each case.
On to `NC[C@H]1O[C@H](O[C@H]2[C@H](O)[C@@H](O[C@H]3O[C@H](CO)[C@@H](O)[C@H](N)[C@H]3O)[C@H](N)C[C@@H]2N)[C@H](O)[C@@H](O)[C@@H]1O` [KANAMYCIN], for which the MIC in experiment [9] and in [14] was no more than 5 mg/L each time.
As to `CC(=O)NC[C@H]1CN(c2ccc(N3CCOCC3)c(F)c2)C(=O)O1` [LINEZOLID], the MIC worked out at 1 mg/L (≈ 2.96 µM) in experiment [1]; 1 mg/L (≈ 2.96 µM) in experiment [2]; 2 mg/L (≈ 5.93 µM) in experiment [3]; 1 mg/L (≈ 2.96 µM) in [4]; 4 mg/L (≈ 11.9 µM) in experiment [5]; 1 mg/L (≈ 2.96 µM) in [6].
For `NNC(=O)c1ccncc1` [ISONIAZID], the MIC in [1], in experiment [3], in experiment [4], in [5] and in experiment [6] was greater than 40 mg/L throughout.
